As a reminder, the IC50 is the concentration at which inhibition is half-maximal. Low readings indicate higher potency, high ones lower potency.

The text below walks through data of patent US20260217701A1, “SELECTIVE BET INHIBITORS AND USES THEREOF” (Tay Therapeutics Limited, priority 2022, published 2026).

Molecules are shown by their SMILES. Some results are limits rather than exact numbers.

The target in experiment [1] is T1, BRD4 BD2 (Homo sapiens, UniProt O60885).
T1 construct: HEK293 cells were transfected using NanoLuc-BRD4-BD1 or NanoLuc-BRD4-BD2 fusion vectors
In words: NanoBRET bromodomain assay, NanoLuc-BRD4-BD2 in HEK293 cells. It is filed as binding. To be noted: for Fold Selectivity BRD4 BD1/BD2: IC50 BD1/IC50 BD2, qualitative if an IC50 is at the upper limit. The protocol:
(§1) Plates were then incubated at 37° C.+5% CO2 incubator for 2 hours.
(§2) Fold Selectivity Calculated (IC50 BD1/IC50 BD2).
On the technique in general: Bioluminescence resonance energy transfer reports proximity on the nanometre scale.

Experiment [2] deals with T2, BRD4 BD1 (Homo sapiens, UniProt O60885).
T2 construct: HEK293 cells were transfected using NanoLuc-BRD4-BD1 or NanoLuc-BRD4-BD2 fusion vectors
In words: NanoBRET bromodomain assay, NanoLuc-BRD4-BD1 in HEK293 cells. It is filed as binding. On the procedure: Exemplary compounds of the disclosure are active against BRD4 BD2 and selective over BRD4 BD1. BRD4 is a representative example of the BET family, as the binding sites of all BET family members are structurally similar. […] IC50s and fold selectivity's are determined as described below and are represented in Table 1.
as §1, §2

On to `Cc1cc(-c2cc3c(-c4cc(=O)n(C)cc4-c4ccc5c(c4)COC5)cn(C)c(=O)c3[nH]2)cc(C)n1.Cl` [Example 33, 4-(5-(1,3-dihydroisobenzofuran-5-yl)-1-methyl-2-oxo-1,2-dihydropyridin-4-yl)-2-(2,6-dimethylpyridin-4-yl)-6-methyl-1,6-dihydro-7H-pyrrolo[2,3-c]pyridin-7-one hydrochloride], for which, in experiment [1], the IC50 is below 10 nM and the “Fold Selectivity BRD4 BD1/BD2” value was “xxxx (Fold >1000)”. In experiment [2], this compound came in with an IC50 above 1000 nM.

Consider `Cn1cc(-c2cccnc2)c(-c2cn(C)c(=O)c3[nH]c(-c4cnn(C(F)(F)F)c4)cc23)cc1=O` [Example 66, 6-methyl-4-(1-methyl-6-oxo-1,6-dihydro-[3,3′-bipyridin]-4-yl)-2-(1-(trifluoromethyl)-1H-pyrazol-4-yl)-1,6-dihydro-7H-pyrrolo[2,3-c]pyridin-7-one], for which, in experiment [1], the IC50 fell in the range of 200 to 1000 nM; the “Fold Selectivity BRD4 BD1/BD2” value was “x (Fold >2 and ≤50)”. In experiment [2], this compound displayed a half-inhibitory concentration (IC50) above 1000 nM.

Consider `Cn1cc(-c2ccccc2)c(-c2cn(C)c(=O)c3[nH]c(-c4cnn(C(F)(F)F)c4)c(F)c23)cc1=O` [Example 21, 3-fluoro-6-methyl-4-(1-methyl-2-oxo-5-phenyl-1,2-dihydropyridin-4-yl)-2-(1-(trifluoromethyl)-1H-pyrazol-4-yl)-1,6-dihydro-7H-pyrrolo[2,3-c]pyridin-7-one], for which, in experiment [1], the IC50 was below 10 nM and the “Fold Selectivity BRD4 BD1/BD2” value is recorded as “xxxx (Fold >1000)”. In experiment [2], this compound had an IC50 above 1000 nM.

As to `Cc1cc(-c2cc3c(-c4cc(=O)n(C)cc4-c4ccccc4F)cn(C)c(=O)c3[nH]2)cc(C)n1.Cl` [Example 26, 2-(2,6-dimethylpyridin-4-yl)-4-(5-(2-fluorophenyl)-1-methyl-2-oxo-1,2-dihydropyridin-4-yl)-6-methyl-1,6-dihydro-7H-pyrrolo[2,3-c]pyridin-7-one hydrogen chloride], the values for the IC50 in experiment [1] and in experiment [2] were below 10 nM and 500 to 1000 nM, respectively. For the same compound, in experiment [1], the “Fold Selectivity BRD4 BD1/BD2” value was “xxx (Fold >200 and ≤1000)”.

As for `Cc1cccc(C)c1Oc1cn(C)c(=O)cc1-c1cn(C)c(=O)c2[nH]c(-c3cnn(C(F)(F)F)c3)cc12` [Example 11, 4-(5-(2,6-dimethylphenoxy)-1-methyl-2-oxo-1,2-dihydropyridin-4-yl)-6-methyl-2-(1-(trifluoromethyl)-1H-pyrazol-4-yl)-1,6-dihydro-7H-pyrrolo[2,3-c]pyridin-7-one], in experiment [1], the IC50 was below 10 nM and the “Fold Selectivity BRD4 BD1/BD2” value is on record as “xxxx (Fold >1000)”. Further, the IC50 in experiment [2] was above 1000 nM.

For `Cn1cc(-c2cccc3c2COC3)c(-c2cn(C)c(=O)c3[nH]c(-c4ccc(F)cc4F)cc23)cc1=O` [Example 6, 2-(2,4-difluorophenyl)-4-(5-(1,3-dihydroisobenzofuran-4-yl)-1-methyl-2-oxo-1,2-dihydropyridin-4-yl)-6-methyl-1,6-dihydro-7H-pyrrolo[2,3-c]pyridin-7-one], in experiment [1], the IC50 was below 10 nM and the “Fold Selectivity BRD4 BD1/BD2” value was “xxxx (Fold >1000)”. In addition, the concentration for half-maximal inhibition (IC50) in experiment [2] was above 1000 nM.

Regarding `Cc1cccc(-c2cc3c(-c4cc(=O)n(C)cc4Oc4c(C)cccc4C)cn(C)c(=O)c3[nH]2)c1F` [Example 99], in experiment [1], the IC50 fell in the range of 10 to 50 nM; the “Fold Selectivity BRD4 BD1/BD2” value was “xxx (Fold >200 and ≤1000)”. Further, the IC50 in experiment [2] was above 1000 nM.

For `CCCn1cc(-c2cc3c(-c4cc(=O)n(C)cc4Oc4c(C)cccc4C)cn(C)c(=O)c3[nH]2)cn1` [Example 41, 4-(5-(2,6-dimethylphenoxy)-1-methyl-2-oxo-1,2-dihydropyridin-4-yl)-6-methyl-2-(1-propyl-1H-pyrazol-4-yl)-1,6-dihydro-7H-pyrrolo[2,3-c]pyridin-7-one], in experiment [1], the IC50 is below 10 nM and the “Fold Selectivity BRD4 BD1/BD2” value was “xxxx (Fold >1000)”. The IC50 in experiment [2] is above 1000 nM.

Regarding `Cc1cccc(C)c1Oc1cn(C)c(=O)cc1-c1cn(C)c(=O)c2[nH]c(-c3cnc(C(C)C)s3)cc12` [Example 54, 4-(5-(2,6-dimethylphenoxy)-1-methyl-2-oxo-1,2-dihydropyridin-4-yl)-2-(2-isopropylthiazol-5-yl)-6-methyl-1,6-dihydro-7H-pyrrolo[2,3-c]pyridin-7-one], the IC50 is below 10 nM in experiment [1] and above 1000 nM in experiment [2]. Besides, in experiment [1], the “Fold Selectivity BRD4 BD1/BD2” value is “xxxx (Fold >1000)”.

Take `Cc1cccc(C)c1Oc1cn(C)c(=O)cc1-c1cn(C)c(=O)c2[nH]c(-c3ccc(OC(F)F)cc3F)cc12` [Example 97]: the figures for the IC50 in experiment [1] and in experiment [2] were 10 to 50 nM and above 1000 nM, respectively. In experiment [1], the “Fold Selectivity BRD4 BD1/BD2” value was “xxx (Fold >200 and ≤1000)”.

In the case of `COCc1cccc(-c2cc3c(-c4cc(=O)n(C)cc4-c4ccccc4)cn(C)c(=O)c3[nH]2)c1` [Example 85], in experiment [1], the IC50 is below 10 nM and the “Fold Selectivity BRD4 BD1/BD2” value is “xxxx (Fold >1000)”. The compound also came in with an IC50 in experiment [2] above 1000 nM.

As for `Cc1nn(C2COC2)cc1-c1cc2c(-c3cc(=O)n(C)cc3-c3ccccc3)cn(C)c(=O)c2[nH]1` [Example 91], in experiment [1], the IC50 lay in the range of 10 to 50 nM; the “Fold Selectivity BRD4 BD1/BD2” value is “xx (Fold >50 and ≤200)”. For the same compound, in experiment [2], the IC50 is above 1000 nM.

Consider `COCc1cccc(-c2cn(C)c(=O)cc2-c2cn(C)c(=O)c3[nH]c(-c4cnn(C(F)(F)F)c4)cc23)c1` [Example 7, 4-(5-(3-(methoxymethyl)phenyl)-1-methyl-2-oxo-1,2-dihydropyridin-4-yl)-6-methyl-2-(1-(trifluoromethyl)-1H-pyrazol-4-yl)-1,6-dihydro-7H-pyrrolo[2,3-c]pyridin-7-one], for which the results for the IC50 in experiment [1] and in experiment [2] were below 10 nM and above 1000 nM, respectively. The “Fold Selectivity BRD4 BD1/BD2” value in experiment [1] was “xxxx (Fold >1000)”.

Take `Cn1cc(-c2cc(=O)n(C3CC(O)C3)cc2-c2ccccc2)c2cc(-c3cnn(C(F)(F)F)c3)[nH]c2c1=O` (stereo not drawn) [Example 64, 4-(1-(3-hydroxycyclobutyl)-2-oxo-5-phenyl-1,2-dihydropyridin-4-yl)-6-methyl-2-(1-(trifluoromethyl)-1H-pyrazol-4-yl)-1,6-dihydro-7H-pyrrolo[2,3-c]pyridin-7-one]: in experiment [1], the IC50 was in the range of 50 to 200 nM; the “Fold Selectivity BRD4 BD1/BD2” value is “x (Fold >2 and ≤50)”. The same compound had an IC50 in experiment [2] of 500 to 1000 nM.

Consider `Cn1cc(-c2ccccc2)c(-c2cn(C)c(=O)c3[nH]c(-c4cnn(C(F)(F)F)c4)cc23)cc1=O` [Example 34, 6-methyl-4-(1-methyl-2-oxo-5-phenyl-1,2-dihydropyridin-4-yl)-2-(1-(trifluoromethyl)-1H-pyrazol-4-yl)-1,6-dihydro-7H-pyrrolo[2,3-c]pyridin-7-one], for which the results for the IC50 in experiment [1] and in experiment [2] were below 10 nM and above 1000 nM, respectively. The “Fold Selectivity BRD4 BD1/BD2” value in experiment [1] is on record as “xxxx (Fold >1000)”.

Take `CC(C)n1cc(-c2cc3c(-c4cc(=O)n(C)cc4-c4cccc(OCCO)c4)cn(C)c(=O)c3[nH]2)cn1` [Example 75]: in experiment [1], the IC50 lay in the range of 200 to 1000 nM; the “Fold Selectivity BRD4 BD1/BD2” value was “x (Fold >2 and ≤50)”. In experiment [2], this compound had a concentration for half-maximal inhibition (IC50) above 1000 nM.

For the compound `Cc1cc(-c2cc3c(-c4cc(=O)n(C)cc4-c4ccc(S(C)(=O)=O)cc4)cn(C)c(=O)c3[nH]2)cc(C)n1` [Example 86], in experiment [1], the IC50 fell in the range of 200 to 1000 nM; the “Fold Selectivity BRD4 BD1/BD2” value was “x (Fold >2 and ≤50)”. In experiment [2], this compound showed an IC50 above 1000 nM.

Take `CC(C)c1cc(-c2cc3c(-c4cc(=O)n(C)cc4-c4ccccc4)cn(C)c(=O)c3[nH]2)ccc1F` [Example 71]: the IC50 in experiment [1] is 50 to 200 nM; in experiment [2] it was above 1000 nM. The “Fold Selectivity BRD4 BD1/BD2” value in experiment [1] was “xx (Fold >50 and ≤200)”.

Regarding `Cn1cc(-c2ccccc2)c(-c2cn(C)c(=O)c3[nH]c(-c4cccc(F)c4F)cc23)cc1=O` [Example 90], in experiment [1], the IC50 was in the range of 10 to 50 nM; the “Fold Selectivity BRD4 BD1/BD2” value is “xxx (Fold >200 and ≤1000)”. The compound also returned an IC50 in experiment [2] above 1000 nM.

On to `Cn1cc(-c2cccc(C(C)(C)O)c2)c(-c2cn(C)c(=O)c3[nH]c(-c4ccc(F)cc4F)cc23)cc1=O` [Example 51, 2-(2,4-difluorophenyl)-4-(5-(3-(2-hydroxypropan-2-yl)phenyl)-1-methyl-2-oxo-1,2-dihydropyridin-4-yl)-6-methyl-1,6-dihydro-7H-pyrrolo[2,3-c]pyridin-7-one], for which, in experiment [1], the concentration for half-maximal inhibition (IC50) was below 10 nM and the “Fold Selectivity BRD4 BD1/BD2” value is given as “xxxx (Fold >1000)”. In addition, in experiment [2], the IC50 is above 1000 nM.

Consider `COCc1ccc(-c2cc3c(-c4cc(=O)n(C)cc4-c4ccccc4)cn(C)c(=O)c3[nH]2)cc1` [Example 46, 2-(4-(methoxymethyl)phenyl)-6-methyl-4-(1-methyl-2-oxo-5-phenyl-1,2-dihydropyridin-4-yl)-1,6-dihydro-7H-pyrrolo[2,3-c]pyridin-7-one], for which the IC50 in experiment [1] was below 10 nM; in experiment [2], above 1000 nM. Also, the “Fold Selectivity BRD4 BD1/BD2” value in experiment [1] was “xxxx (Fold >1000)”.

On to `COc1cccc(-c2cc3c(-c4cc(=O)n(C5CC5)cc4Oc4c(C)cccc4C)cn(C)c(=O)c3[nH]2)c1F` [Example 40, 4-(1-cyclopropyl-5-(2,6-dimethylphenoxy)-2-oxo-1,2-dihydropyridin-4-yl)-2-(2-fluoro-3-methoxyphenyl)-6-methyl-1,6-dihydro-7H-pyrrolo[2,3-c]pyridin-7-one], for which, in experiment [1], the IC50 was 10 to 50 nM; the “Fold Selectivity BRD4 BD1/BD2” value is “xxx (Fold >200 and ≤1000)”. This compound yielded an IC50 in experiment [2] above 1000 nM.

As for `CC(C)n1cc(-c2cc3c(-c4cc(=O)n(C)cc4-c4cccc(CS(C)(=O)=O)c4)cn(C)c(=O)c3[nH]2)cn1` [Example 72], in experiment [1], the IC50 was 200 to 1000 nM; the “Fold Selectivity BRD4 BD1/BD2” value is “x (Fold >2 and ≤50)”. The compound also had an IC50 in experiment [2] above 1000 nM.

On to `Cc1cccc(C)c1Oc1cn(C)c(=O)cc1-c1cn(C)c(=O)c2[nH]c(-c3cnn(CC#N)c3)cc12` [Example 96], for which, in experiment [1], the IC50 fell in the range of 10 to 50 nM; the “Fold Selectivity BRD4 BD1/BD2” value was “x (Fold >2 and ≤50)”. This compound had an IC50 in experiment [2] of 500 to 1000 nM.
